Experimental data from patent publication US20240368049A1, “ENHANCED PHYTOREMEDIATION FROM BIOAVAILABILITY OF PER- AND POLYFLUOROALKYL SUBSTANCES IN CONTAMINATED SOIL” (The Research Foundation for the State University of New York, priority 2023, published 2024).

Assays:
[1] = SPLP (EPA method 1312) leachability of PFAS in biosolids amended soil; type: physicochemical; details: for percentage of SPLP leachable PFAS in biosolids amended soil: without a sorbent, Day-80, pH 4.2
Protocol: PFAS in the freeze-dried timothy-grass shoots were extracted by MTBE-NaOH according to a previously developed method. Before extraction, each sample for extraction was spiked with 10 ng of 13C2-PFHxA as the surrogate for determining the extraction efficiency. EPA method 1312 (Synthetic Precipitation Leaching Procedure, SPLP) was performed on the biosolids amended soil after drying to determine the leachability of PFAS. Briefly, 20 mL of H2SO4/HNO3 reagent (60/40 wt/wt.) at pH=4.2 were added to the soil sample. The soil with the H2SO4/HNO3 reagent was then vortexed for 30s and shaken on an end over end mixer overnight. After centrifugation at 3500 g for 30 min, the supernatant was collected and subject to solid phase extraction (SPE) using HyperSep C18 cartridges (Thermo Scientific, Waltham, MA). The SPLP leachable PFAS on the C18 cartridges were eluted with 2 mL of methanol, followed by 2 mL of 0.1% NH40H amended methanol. The SPLP leachable PFAS in clean soil without biosolids amendment were analyzed as well. PFAS in the final plant extracts and SPLP leachates were quantified using a 1290 Infinity II LC system coupled with a 6470 Triple Quad Mass Spectrometer (LC-MS/MS, Agilent Technologies, Santa Clara, CA, USA).
FIG. 3 is a series of graphs 40 of percentages of leachable PFAS in biosolids-amended soil treated by different sorbents on Day-80 (n=3). Different letters represent significant differences among the treatments (p<0.05). […] Without a sorbent, almost 100% of leaching of PFHxA 42, PFHpA 44 and PFOA 46 was observed. Similarly to PFAS uptake by the shoots, a chain length effect was visible: the shorter the carbon chain of PFAS, the higher the leachability. […] Compared to PFAS concentrations in the shoots (FIG. 1), there was no positive correlation between acidic water leachable PFAS and the extent of shoot uptake for treatment with biochar at both doses and RemBind at the dose of 0.2%. Thus, results from SPLP at pH=4.2 for sites east of the Mississippi River may not be able to predict bioavailable PFAS to the studied grass. The SPLP is an established and widely adopted EPA method for investigating leaching of organic contaminants in soil. One should note that the acidic water used in the leaching procedure may actually decrease PFAS leaching due to the acidic nature of PFAAs. But since the focus here was to evaluate the effect of different sorbents toward stabilizing PFAS in soil amended by biosolids, the SPLP served our purpose well.

[2] = tested on: timothy-grass (Phleum pratense); test: uptake of PFAS by timothy-grass shoots grown in biosolids-amended soil treated by a sorbent or SDS; type: in vivo
Excerpt: The method uses the addition of a mobilizing reagent, at a predetermined dose as described herein, to amend the soil around a root system of one or more plants. The supplementing of the amended soil with a stabilizing reagent at a predetermined dose, as also defined below. In one embodiment, the preparation of biosolids amended soil uses a sandy loam soil used in this study (pH=7.56), which was collected from a local farm in Albany County, New York. The soil was passed through a 2-mm sieve before use. The contents of natural organic matter and total organic carbon of the sieved soil were 4.82±0.12% and 2.44±0.45%, respectively. The sieved soil was mixed with vermiculite in a 1:1 vol ratio for increasing water retention of the soil and improving soil aeration. Then, the processed soil for plant cultivation was distributed to 7-quart polypropylene containers (14.375″L×8.25″W×6″H). Each container had 1.3 kg of dry soil.
The biosolids after anaerobic digestion of sludge were collected from a nearby wastewater treatment plant close to University at Albany. The total solid and total organic carbon of the biosolids were 24.16±0.21% and 28.64±0.28%, respectively. […]
Timothy-grass seeds were purchased from OrOlam LLC (South Miami, FL). […] Around 1 g of the plant tissues from each treatment was used for chlorophyll extraction and quantification. […]

[3] = tested on: timothy-grass (Phleum pratense); test: chlorophyll content of timothy-grass shoots; type: in vivo; details: mobilization treatment with SDS
Protocol: Timothy-grass seeds were purchased from OrOlam LLC (South Miami, FL). One gram of seeds was sown evenly in each tank containing the prepared biosolids amended soil. Enough water was then added to each tank to reach 100% of field capacity. The plants were cultivated in a greenhouse and watered every day. The timothy-grass started germinating on the 5th day after sowing. On Day-40 after seed germination, the above-ground shoots of the grass in each tank were cut and rinsed thoroughly using deionized water. Around 1 g of the plant tissues from each treatment was used for chlorophyll extraction and quantification. The remaining plant shoots were freeze-dried at −37° C. for 48 h and subject to PFAS extraction and analysis. The plants after cutting were kept under the same growth condition. On Day-80 after seed germination or day-40 after the first cut, the plant shoots were removed again and subject to chlorophyll and PFAS analysis. […]
On Day-40 and Day-80 after seed germination, 100 mg of fresh grass leaves were collected and used to quantify chlorophyll content. […] After 48 h, the chlorophyll concentration in the solvent was determined using a UV-Vis spectrophotometer (GENESYS 10S, Thermo Fisher Scientific, altham, MA, USA). The absorbance was read at 664 and 647 nm and used to calculate chlorophyll a and b and total chlorophyll content according to these equations: […]

O=C(O)C(F)(F)C(F)(F)C(F)(F)C(F)(F)C(F)(F)F [PFHxA, perfluorohexanoic acid]
percentage of SPLP leachable PFAS in biosolids amended soil [1]: ~100%

O=C(O)C(F)(F)C(F)(F)C(F)(F)C(F)(F)C(F)(F)C(F)(F)F [PFHpA, perfluoroheptanoic acid]
percentage of SPLP leachable PFAS in biosolids amended soil [1]: ~100%

CCCCCCCCCCCCOS(=O)(=O)[O-].[Na+] [SDS, sodium dodecyl sulphate]
effect on acidic water leachable PFAS in biosolids amended soil ([1]; SDS at a dose up to 100 mg/kg): did not significantly increase | effect on uptake of PFAS by the shoots ([2]; SDS 100 mg/kg, Day-40, exceptions PFOA and PFOS): significantly higher uptake of PFAS | effect on ΣPFAS uptake by the shoots ([2]; SDS, all three doses (10, 50, 100 mg/kg), Day-80): significantly higher PFAS uptake | effect on chlorophyll content in timothy-grass [3]: did not change the chlorophyll content

O=C(O)C(F)(F)C(F)(F)C(F)(F)C(F)(F)C(F)(F)C(F)(F)C(F)(F)F [PFOA, perfluorooctanoic acid]
percentage of SPLP leachable PFAS in biosolids amended soil [1]: ~100%
